Experimental findings from US11090304B2 (Amgen Inc., priority 2018, dated 2021) are described below.

Molecules are shown by their SMILES. Where two headings read alike, the source gives them in different places.

Test [1] concerns Phosphorylation of ERK1/2 in MIA PaCa-2 cells. Put plainly: Phospho-ERK1/2 MSD assay in MIA PaCa-2 cells. The conditions noted are these: read-out: p-ERK IC50 (2 h; MIA PaCa-2), 2 h compound treatment. It counts as cell-based. In outline:
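In the procedure, cells were plated a day ahead at 25,000 per well. Next, a dilution series of compound in growth medium was added for 2 or 4 h. EGF (10 ng/mL) stimulation for 10 min preceded washing and RIPA lysis. Lysate phospho-ERK1/2 was read by MSD, with IC50 derived by 4-parameter logistic analysis.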

Test [2] has as its target GDP-bound KRAS protein (aa 1-169), containing both G12C and C118A amino acid substitutions (Homo sapiens, UniProt P01116, C118A/G12C). Put plainly: Coupled nucleotide exchange assay (SOS-mediated, AlphaScreen). The settings on record: 5 min compound pre-incubation. Format: biochemical.

GDP-bound KRAS protein (aa 1-169), containing both G12C and C118A amino acid substitutions, sequence (P01116 1-169 isoform P01116-2 G12C/C118A): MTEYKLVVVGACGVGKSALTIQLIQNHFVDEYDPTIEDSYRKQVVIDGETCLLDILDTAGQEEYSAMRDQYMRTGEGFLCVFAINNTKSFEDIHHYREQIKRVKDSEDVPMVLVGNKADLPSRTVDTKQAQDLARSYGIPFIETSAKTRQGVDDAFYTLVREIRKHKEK

As usually defined, the IC50 is the concentration at which inhibition is half-maximal. Consider `C=CC(=O)N1C[C@H](C)N(c2nc(=O)n(-c3c(C)ccnc3C(C)C)c3nc(-c4ccccc4F)c(Cl)cc23)[C@@H](C)C1` (single isomer, unassigned) [Example 78-8], for which, in test [1] (Homo sapiens, MIA PaCa-2, 2 h), the 50% inhibitory concentration (IC50) stood at 10 nM. Also, the “Coupled exchange IC50 (5 min)” value in test [2] is listed as 0.026 | nda μM.
As for `C=CC(=O)N1CCN(c2nc(=O)n(-c3c(C)noc3C(C)C)c3nc(-c4ccccc4F)c(Cl)cc23)[C@@H](C)C1` [Example 55-11, 6-chloro-7-(2-fluoropheny)-1-(3-methyl-5-(2-propanyl)-1,2-oxazol-4-yl)-4-((2S)-2-methyl-4-(2-propenoyl)-1-piperazinyl)pyrido[2,3-d]pyrimidin-2(1H)-one], in test [1] (Homo sapiens, MIA PaCa-2, 2 h), the IC50 worked out at 235 nM. In addition, the “Coupled exchange IC50 (5 min)” value in test [2] was 0.309 | nda μM.
For `C=CC(=O)N1CCN(c2nc(=O)n(-c3nccnc3CC)c3nc(-c4c(O)cccc4F)c(Cl)cc23)[C@@H](C)C1` [Example 54-37, 6-chloro-1-(3-ethyl-2-pyrazinyl)-7-(2-fluoro-6-hydroxy-phenyl)-4-((2S)-2-methyl-4-(2-propenoyl)-1-piperazinyl) pyrido[2,3-d]pyrimidin-2(1H)-one], the IC50 in test [1] (Homo sapiens, MIA PaCa-2, 2 h) is 227 nM. Moreover, the “Coupled exchange IC50 (5 min)” value in test [2] is given as 0.304 | nda μM.
Consider `C=CC(=O)N1CCN(c2nc(=O)n(-c3c(C)ccnc3C(C)C)c3nc(-c4c(O)cccc4Cl)c(F)cc23)[C@@H](C)C1` (single isomer, unassigned) [Example 58-9-2], for which the half-maximal inhibitory concentration (IC50) in test [1] was determined as 326 nM. In addition, the “Coupled exchange IC50 (5 min)” value in test [2] is 0.349 | nda μM.
Turning to `C=CC(=O)N1CCN(c2nc(=O)n(-c3ccccc3C(C)(C)C)c3nc(-c4c(O)cccc4F)c(F)cc23)[C@@H](C)C1` [Example 58-1, 6-Fluoro-7-(2-fluoro-6-hydroxyphenyl)-1-(2-(2-methyl-2-propanyl)phenyl)-4-((2S)-2-methyl-4-(2-propenoyl)-1-piperazinyl)pyrido[2,3-d]pyrimidin-2(1H)-one], in test [1] (Homo sapiens, MIA PaCa-2, 2 h), the IC50 was 696 nM. Besides, in test [2], the “Coupled exchange IC50 (5 min)” value is given as 0.661 | nda μM.
The like results for `C=CC(=O)N1CCN(c2nc(=O)n(-c3ccccc3C(C)C)c3nc(-c4ccccc4F)c(C)cc23)[C@@H](C)C1` (single isomer, unassigned) [Example 74-1-2] were, in that order, 152 nM and 0.118 | nda μM.
On the same counts, the results for `C=CC(=O)N1CCN(c2nc(=O)n(-c3c(C)ccnc3C(C)C)c3nc(-c4cc(F)ccc4F)c(Cl)cc23)[C@@H](C)C1` (atropisomer, axis not shown; (M)) [Example 73-2, (M)-6-chloro-7-(2,5-difluorophenyl)-1-(4-methyl-2-(2-propanyl)-3-pyridinyl)-4-((2S)-2-methyl-4-(2-propenoyl)-1-piperazinyl)pyrido[2,3-d]pyrimidin-2(1H)-one] are 101 nM and 0.067 | nda μM.
As for `C=CC(=O)N1CCN(c2nc(=O)n(-c3ccccc3CC(F)(F)F)c3nc(-c4c(O)cccc4F)c(Cl)cc23)[C@@H](C)C1` [Example 55-6, 6-chloro-7-(2-fluoro-6-hydroxyphenyl)-4-((2S)-2-methyl-4-(2-propenoyl)-1-piperazinyl)-1-(2-(2,2,2-trifluoroethyl)phenyl)pyrido[2,3-d]pyrimidin-2(1H)-one], in test [1] (Homo sapiens, MIA PaCa-2, 2 h), the half-inhibitory concentration (IC50) stood at 317 nM. The “Coupled exchange IC50 (5 min)” value in test [2] was 0.318 | nda μM.
Take `C=CC(=O)N1CCN(c2nc(=O)n(-c3ccccc3C(C)C)c3nc(-c4nc(N)ccc4Cl)c(Cl)cc23)[C@@H](C)C1` [Example 70-1, 7-(6-Amino-3-chloro-2-pyrindinyl)-6-chloro-4-((2S)-2-methyl-4-(2-propenoyl)-1-piperazinyl)-1-(2-(2-propanyl)phenyl)pyrido[2,3-d]pyrimidin-2(1H)-one]: the IC50 in test [1] (Homo sapiens, MIA PaCa-2, 2 h) came to 225 nM. The “Coupled exchange IC50 (5 min)” value in test [2] was 0.225 | nda μM.
Consider `C=CC(=O)N1CCN(c2nc(=O)n(-c3ccccc3C(C)C)c3nc(-c4cc(F)ccc4O)c(Cl)cc23)[C@@H](C)C1` [Example 54-78, 6-chloro-7-(5-fluoro-2-hydroxyphenyl)-4-((2S)-2-methyl-4-(2-propenoyl)-1-piperazinyl)-1-(2-(2-propanyl)phenyl)pyrido [2,3-d]pyrimidin-2(1H)-one], for which the IC50 in test [1] (Homo sapiens, MIA PaCa-2, 2 h) was determined as 171 nM. Moreover, the “Coupled exchange IC50 (5 min)” value in test [2] was 0.326 | nda μM.
Regarding `C=CC(=O)N1CCN(c2nc(=O)n(-c3c(C4CC4)ccnc3C)c3nc(-c4c(O)cccc4F)c(F)cc23)[C@@H](C)C1` (single isomer, unassigned) [Example 58-19-2], the IC50 in test [1] (Homo sapiens, MIA PaCa-2, 2 h) was determined as 525 nM. Also, the “Coupled exchange IC50 (5 min)” value in test [2] is 0.226 | nda μM.
The like results for `C=CC(=O)N1CCN(c2nc(=O)n(-c3c(C)ccnc3C(C)C)c3nc(-c4cc(N)ccc4F)c(F)cc23)[C@@H](C)C1` [Example 58-6] were, in that order, 842 nM and 0.623 | nda μM.
The like results for `C=CC(=O)N1CCN(c2nc(=O)n(-c3c(C)cc(C(=O)OC)cc3C(C)C)c3nc(-c4ccccc4F)c(Cl)cc23)[C@@H](C)C1` [Example 156, Methyl 4-(6-chloro-7-(2-fluorophenyl)-4-((2S)-2-methyl-4-(2-propenoyl)-1-piperazinyl)-2-oxopyrido[2,3-d]pyrimidin-1(2H)-yl)-3-methyl-5-(2-propanyl)benzoate] were, in that order, 80 nM and 0.057 | nda μM.
Take `C=CC(=O)N1CCN(c2nc(=O)n(-c3c(C)ccnc3C(C)C)c3nc(-c4ccccc4F)c(C)nc23)[C@@H](C)C1` (single isomer, unassigned) [Example 143-2]: in test [1], the IC50 is 397 nM. In addition, the “Coupled exchange IC50 (5 min)” value in test [2] is listed as 2.43 | nda μM.
With `C=CC(=O)N1CCN(c2nc(=S)n(-c3c(CC)cccc3CC)c3cc(-c4ccccc4F)c(Cl)cc23)[C@@H](C)C1` [Example 116, 1-((3S)-4-(6-Chloro-1-(2,6-diethylphenyl)-7-(2-fluorophenyl)-2-sulfanylidene-1,2-dihydro-4-quinazolinyl)-3-methyl-1-piperazinyl)-2-propen-1-one], the IC50 in test [1] (Homo sapiens, MIA PaCa-2, 2 h) was determined as 543 nM. For the same molecule, the “Coupled exchange IC50 (5 min)” value in test [2] is 0.232 | nda μM.
In the case of `C=CC(=O)N1CCN(c2nc(=O)n(-c3c(C(C)C)cccc3N(C)C)c3nc(-c4ccccc4F)c(Cl)cc23)[C@@H](C)C1` [Example 54-104, 6-chloro-1-(2-(dimethyl-amino)-6-(2-propanyl)phenyl)-7-(2-fluorophenyl)-4-((2S)-2-methyl-4-(2-propenoyl)-1-piperazinyl) pyrido[2,3-d]pyrimidin-2(1H)-one], the IC50 in test [1] (Homo sapiens, MIA PaCa-2, 2 h) is 70 nM. The “Coupled exchange IC50 (5 min)” value in test [2] is 0.09 | nda μM.
On the same counts, the results for `C=CC(=O)N1CCN(c2nc(=O)n(-c3c(C)cccc3C3CC3)c3nc(-c4c(O)cccc4F)c(F)cc23)[C@@H](C)C1` (single isomer, unassigned) [Example 58-13-2] are 371 nM and 0.26 | nda μM.
Turning to `C=CC(=O)N1CCN(c2nc(=O)n(-c3ccccc3C(C)C)c3nc(-c4cc(O)cc(Cl)c4Cl)c(Cl)cc23)[C@@H](C)C1` (single isomer, unassigned) [Example 54-91-1], the IC50 in test [1] worked out at 33 nM. In addition, the “Coupled exchange IC50 (5 min)” value in test [2] was 0.021 | nda μM.
